≈ marks a conversion by molar mass, not a printed value. Read-outs that look alike come from different tables or passages of the source.
Experiments:
Assay in all cases: MIC by agar dilution
[1] = tested on: E. cloacae (27); format: cell-based, Enterobacter cloacae; details: E. cloacae (27)
Text: (§1) Bacterial isolates. […] These included Citrobacter freundii (n=5), other species of Citrobacter (n=4), Enterobacter aerogenes (n=1), Enterobacter cloacae (n=27), Escherichia coli (n=53), Klebsiella oxytoca (n=5), Klebsiella pneumoniae (n=87), Kluyvera spp (n=1), Proteus mirabilis (n=8), Providencia rettgeri (n=2), Salmonella spp (n=3), and Serratia marcescens (n=1). Among these 197 isolates, there were 128 (65%) carbapenemase producers, including; 87 with NDM-1, 9 with IMP, 11 with KPC, 14 with OXA-48 and 7 with VIM. The majority of the carbapenemase producers jointly produced broad-spectrum β-lactamases (BSBL) or cephalosporinases (AmpC β-lactamases), but the latter are not documented for the sake of clarity.
(§2) Determining the minimum inhibitory concentrations (MIC). All the MICs were determined using an agar dilution method. This required use of a medium without a defined antagonist (peptone-free), prepared as described previously with the inclusion of 2% horse blood lysed with saponin, 25.0 μg/mL of NAD and 25.0 μg/mL of hemin [17]. The compounds tested were dissolved in sterile deionised water and incorporated into the agar medium in a concentration range of 0.0031 to 8.0 μg/mL (0.016 to 32 μg/mL for gram-positive bacteria). All the isolates were prepared at a density equivalent to 0.5 McFarland units in sterile deionised water using a densitometer (approximately 1.5×10^8 CFU/mL), and then diluted to 1 for 15. An aliquot of 1 μL of each diluted suspension was then placed onto plates with a multispot inoculator to give the final recommended inoculation of 10 000 CFU/spot. The MICs of fosfomycin were determined by the same method, except that the IsoSensitest medium (Oxoid, Basingstoke, United Kingdom) was used, plus 25.0 μg/mL of glucose-6-phosphate (Sigma, Poole, United Kingdom) and an extended range of fosfomycin concentrations. All the dishes (including the antimicrobial-free controls) were incubated for 22 hours at 37° C. All the tests were performed on at least two independent replicates in order to examine the reproducibility.

[2] = tested on: E. faecalis (11); format: cell-based, Enterococcus faecalis; details: E. faecalis (11)
Text: (§3) A collection of 50 isolates of Staphylococci aureus included 36 strains of methicillin-resistant S. aureus (MRSA) frequently encountered in Europe, including strains isolated in Belgium, Finland, France, Germany and the United Kingdom. Another strain of MRSA, NCTC 11939, was included as a control, as well as a methicillin-sensitive control (NCTC 6571). Twelve other isolates of methicillin-sensitive Staphylococcus aureus (MSSA) recently collected from blood cultures were also included. Finally, 50 isolates of enterococci included two control strains (Enterococcus faecalis NCTC 755 and Enterococcus faecium NCTC 7171) and 48 isolates originating from clinical samples obtained from at least three different hospitals. The clinical isolates included E. faecalis (n=10), E. faecium (n=33), Enterococcus casseliflavus (n=3), Enterococcus gallinarum (n=2).
as §2

[3] = tested on: E. faecium (34); format: cell-based, Enterococcus faecium
Text: as §3, §2

[4] = tested on: K. pneumoniae (87); format: cell-based, Klebsiella pneumoniae; details: K. pneumoniae (87)
Text: as §1, §2

[5] = tested on: AmpC (22); format: cell-based, Enterobacteriaceae
Text: as §1, §2

[6] = tested on: methicillin-resistant Staphylococcus aureus; format: cell-based
Text: as §3, §2

[7] = tested on: All Enterococci (50); format: cell-based
Text: as §3, §2

[8] = tested on: methicillin-sensitive Staphylococcus aureus; format: cell-based; details: MSSA (13)
Text: as §3, §2

[9] = tested on: glycopeptide-resistant enterococci; format: cell-based; details: GRE (43)
Text: as §3, §2

[10] = tested on: All S. aureus (50); format: cell-based, Staphylococcus aureus; details: All S. aureus (50)
Text: as §3, §2

[11] = tested on: carbapenemase-producing Enterobacteriaceae; format: cell-based
Text: as §1, §2

[12] = tested on: Enterobacteriaceae with a broad-spectrum β-lactamase; format: cell-based
Text: as §1, §2

[13] = tested on: Enterobacteriaceae (197); format: cell-based; details: Enterobacteriaceae (197)
Text: as §1, §2

[14] = tested on: E. coli (53); format: cell-based, Escherichia coli; details: E. coli (53)
Text: as §1, §2

[15] = read-out: Modal MIC (most frequent MIC)
[16] = Staphylococcus aureus, read-out: MIC50
[17] = Staphylococcus aureus, read-out: MIC90
[18] = Staphylococcus aureus, read-out: Modal MIC (most frequent MIC)

Structure (SMILES): C[C@H](NC(=O)[C@H](CCl)NC(=O)[C@@H](N)CCl)P(=O)(O)O [β-Cl-Ala-β-Cl-Alafosfalin, β-chloro-L-alanyl-β-chloro-L-alanyl-L-1-aminoethylphosphonic acid]
- MIC Range [1]: 0.25 to 8 µg/mL
- MIC50 ([1]; Enterobacter cloacae, read-out: MIC50): 1 µg/mL (≈ 2.98 µM)
- MIC90 ([1]; Enterobacter cloacae, read-out: MIC90): 4 µg/mL (≈ 11.9 µM)
- MIC ([1]; Enterobacter cloacae, read-out: Modal MIC (most frequent MIC)): 1 µg/mL (≈ 2.98 µM)
- MIC50 ([2]; Enterococcus faecalis, read-out: MIC50): 0.25 µg/mL (≈ 0.744 µM)
- MIC90 ([2]; Enterococcus faecalis, read-out: MIC90): 4 µg/mL (≈ 11.9 µM)
- MIC ([2]; Enterococcus faecalis, read-out: Modal MIC (most frequent MIC)): 0.25 µg/mL (≈ 0.744 µM)
- MIC50 ([3]; Enterococcus faecium, E. faecium (34), read-out: MIC50): 8 µg/mL (≈ 23.8 µM)
- MIC90 ([3]; Enterococcus faecium, E. faecium (34), read-out: MIC90): 8 µg/mL (≈ 23.8 µM)
- MIC ([3]; Enterococcus faecium, E. faecium (34), read-out: Modal MIC (most frequent MIC)): 8 µg/mL (≈ 23.8 µM)
- MIC50 ([4]; Klebsiella pneumoniae, read-out: MIC50): 4 µg/mL (≈ 11.9 µM)
- MIC90 ([4]; Klebsiella pneumoniae, read-out: MIC90): > 8 µg/mL
- MIC ([4]; Klebsiella pneumoniae, read-out: Modal MIC (most frequent MIC)): 4 µg/mL (≈ 11.9 µM)
- MIC90 [5]: > 8 µg/mL
- MIC [5, 15]: > 8 µg/mL
- MIC Range ([6]; MRSA (37)): 2 to 16 µg/mL
- MIC ([6]; Staphylococcus aureus, MRSA, read-out: Modal MIC (most frequent MIC)): 16 µg/mL (≈ 47.6 µM)
- MIC50 ([6]; Staphylococcus aureus, MRSA (37), read-out: MIC50): 16 µg/mL (≈ 47.6 µM)
- MIC90 ([6]; Staphylococcus aureus, MRSA (37), read-out: MIC90): 16 µg/mL (≈ 47.6 µM)
- MIC50 ([7]; All Enterococci (50), read-out: MIC50): 8 µg/mL (≈ 23.8 µM)
- MIC90 ([7]; All Enterococci (50), read-out: MIC90): 16 µg/mL (≈ 47.6 µM)
- MIC ([7]; All Enterococci (50), read-out: Modal MIC (most frequent MIC)): 8 µg/mL (≈ 23.8 µM)
- MIC Range [8]: 4 to 16 µg/mL
- MIC50 [8, 16]: 16 µg/mL (≈ 47.6 µM)
- MIC90 [8, 17]: 16 µg/mL (≈ 47.6 µM)
- MIC [8, 18]: 16 µg/mL (≈ 47.6 µM)
- MIC50 ([9]; read-out: MIC50): 8 µg/mL (≈ 23.8 µM)
- MIC90 ([9]; read-out: MIC90): 16 µg/mL (≈ 47.6 µM)
- MIC Range [10]: 2 to 16 µg/mL
- MIC50 [10, 16]: 16 µg/mL (≈ 47.6 µM)
- MIC90 [10, 17]: 16 µg/mL (≈ 47.6 µM)
- MIC [10, 18]: 16 µg/mL (≈ 47.6 µM)
- MIC50 [11]: 2 µg/mL (≈ 5.95 µM)
- MIC90 [11]: 8 µg/mL (≈ 23.8 µM)
- MIC [11, 15]: 4 µg/mL (≈ 11.9 µM)
- MIC50 [12]: 4 µg/mL (≈ 11.9 µM)
- MIC90 [12]: > 8 µg/mL
- MIC [12, 15]: > 8 µg/mL
- MIC50 ([13]; read-out: MIC50): 2 µg/mL (≈ 5.95 µM)
- MIC90 ([13]; read-out: MIC90): > 8 µg/mL
- MIC [13, 15]: 4 µg/mL (≈ 11.9 µM)
- MIC Range [14]: ≤0.031-1 ^ μg/mL
- MIC50 ([14]; Escherichia coli, read-out: MIC50): 0.25 µg/mL (≈ 0.744 µM)
- MIC90 ([14]; Escherichia coli, read-out: MIC90): 1 µg/mL (≈ 2.98 µM)
- MIC ([14]; Escherichia coli, read-out: Modal MIC (most frequent MIC)): 0.25 µg/mL (≈ 0.744 µM)

Structure (SMILES): C[C@H](N)C(=O)N[C@@H](C)C(=O)N[C@@H](C)P(=O)(O)O [Di-alanyl fosfalin, L-alanyl-L-alanyl-L-1-aminoethylphosphonic acid]
- MIC50 [1]: >8 µg/mL
- MIC90 [1]: >8 µg/mL
- Modal MIC (most frequent MIC) [1]: 4 µg/mL
- MIC50 [2]: 0.063 µg/mL (≈ 0.236 µM)
- MIC90 [2]: 0.5 µg/mL (≈ 1.87 µM)
- Modal MIC (most frequent MIC) [2]: 0.031 µg/mL
- concentration by which all isolates were inhibited ([3]; 34 E. faecium isolates (including 31 vancomycin-resistant)): 4 µg/mL
- MIC50 ([3]; E. faecium (34)): 0.5 µg/mL (≈ 1.87 µM)
- MIC90 ([3]; E. faecium (34)): 2 µg/mL (≈ 7.48 µM)
- MIC Range ([3]; E. faecium (34)): ≤0.016-4 ^ μg/mL
- Modal MIC (most frequent MIC) ([3]; E. faecium (34)): 0.5 µg/mL
- MIC50 [4]: >8 µg/mL
- MIC90 [4]: >8 µg/mL
- Modal MIC (most frequent MIC) [4]: >8 µg/mL
- MIC50 ([5]; AmpC (22)): >8 µg/mL
- MIC90 ([5]; AmpC (22)): >8 µg/mL
- Modal MIC (most frequent MIC) ([5]; AmpC (22)): >8 µg/mL
- MIC50 ([6]; MRSA (37)): 8 µg/mL (≈ 29.9 µM)
- MIC90 ([6]; MRSA (37)): 16 µg/mL (≈ 59.9 µM)
- MIC Range ([6]; MRSA (37)): 0.5 to 32 µg/mL
- Modal MIC (most frequent MIC) ([6]; MRSA (37)): 4 µg/mL
- MIC50 ([7]; All Enterococci (50)): 0.5 µg/mL (≈ 1.87 µM)
- MIC90 ([7]; All Enterococci (50)): 2 µg/mL (≈ 7.48 µM)
- Modal MIC (most frequent MIC) ([7]; All Enterococci (50)): 0.5 µg/mL
- MICs lower than those of alafosfalin, in certain cases ([7]; enterococci): 256 times
- MICs lower than those of alafosfalin, on average ([7]; enterococci): ~16 times
- MIC50 [8]: 8 µg/mL (≈ 29.9 µM)
- MIC90 [8]: 16 µg/mL (≈ 59.9 µM)
- MIC Range [8]: 0.5 to 32 µg/mL
- Modal MIC (most frequent MIC) [8]: 16 µg/mL
- MIC50 [9]: 0.5 µg/mL (≈ 1.87 µM)
- MIC90 [9]: >32 µg/mL
- Modal MIC (most frequent MIC) [9]: 0.5 µg/mL
- MIC50 [10]: 8 µg/mL (≈ 29.9 µM)
- MIC90 [10]: 16 µg/mL (≈ 59.9 µM)
- MIC Range [10]: 0.5 to 32 µg/mL
- Modal MIC (most frequent MIC) [10]: 4 µg/mL
- MIC50 ([11]; CPE (128)): 8 µg/mL (≈ 29.9 µM)
- MIC90 ([11]; CPE (128)): >8 µg/mL
- Modal MIC (most frequent MIC) ([11]; CPE (128)): >8 µg/mL
- MIC50 ([12]; BSBL (47)): 8 µg/mL (≈ 29.9 µM)
- MIC90 ([12]; BSBL (47)): >8 µg/mL
- Modal MIC (most frequent MIC) ([12]; BSBL (47)): >8 µg/mL
- MIC50 [13]: 8 µg/mL (≈ 29.9 µM)
- MIC90 [13]: >8 µg/mL
- Modal MIC (most frequent MIC) [13]: >8 µg/mL
- MIC50 [14]: 0.5 µg/mL (≈ 1.87 µM)
- MIC90 [14]: 2 µg/mL (≈ 7.48 µM)
- Modal MIC (most frequent MIC) [14]: 0.25 µg/mL

Source: patent US9969758B2, “Antimicrobial compounds” (BIOMERIEUX, priority 2014, dated 2018)
